Read-outs that look alike come from different tables or passages of the source.
Legend:
Format in all cases: in vivo
[1] = system: Plutella xylostella (Diamond Back Moth); assay: Example B4: Plutella xylostella (diamond back moth), artificial diet, eggs, 24-well; conditions: 192 h, read-out: control in at least one of the two categories (mortality or growth inhibition)
Experimental: 24-well microtiter plates with artificial diet were treated with aqueous test solutions prepared from 10′000 ppm DMSO stock solutions by pipetting. After drying, Plutella eggs were pipetted through a plastic stencil onto a gel blotting paper and the plate was closed with it. The samples were assessed for mortality and growth inhibition in comparison to untreated samples 8 days after infestation.

[2] = system: Spodoptera littoralis (Egyptian Cotton Leaf Worm); assay: Example B7: Spodoptera littoralis (Egyptian cotton leaf worm), cotton leaf discs sprayed, L1 larvae; conditions: foliar, 72 h, application rate of 200 ppm, 3 days after infestation, L1 larvae, read-out: control in at least one of the three categories (mortality, anti-feedant effect, or growth inhibition)
Experimental: Cotton leaf discs were placed onto agar in 24-well microtiter plates and sprayed with aqueous test solutions prepared from 10′000 ppm DMSO stock solutions. After drying the leaf discs were infested with five L1 larvae. The samples were assessed for mortality, anti-feeding effect, and growth inhibition in comparison to untreated samples 3 days after infestation. Control of Spodoptera littoralis by a test sample is given when at least one of the categories mortality, anti-feedant effect, and growth inhibition is higher than the untreated sample.

[3] = system: Diabrotica Balteata (Corn Root Worm); assay: Example B1: Diabrotica balteata (corn root worm), maize sprouts sprayed, L2 larvae; conditions: 96 h, read-out: control in at least one of the two categories (mortality or growth inhibition)
Experimental: Maize sprouts placed onto an agar layer in 24-well microtiter plates were treated with aqueous test solutions prepared from 10′000 ppm DMSO stock solutions by spraying. After drying, the plates were infested with L2 larvae (6 to 10 per well). The samples were assessed for mortality and growth inhibition in comparison to untreated samples 4 days after infestation.

[4] = system: Chilo suppressalis (Striped Rice Stemborer); assay: Example B3: Chilo suppressalis (striped rice stemborer), artificial diet, L2 larvae; conditions: 144 h, read-out: control in at least one of the three categories (mortality, anti-feedant effect, or growth inhibition)
Experimental: 24-well microtiter plates with artificial diet were treated with aqueous test solutions prepared from 10′000 ppm DMSO stock solutions by pipetting. After drying, the plates were infested with L2 larvae (6-8 per well). The samples were assessed for mortality, anti-feeding effect, and growth inhibition in comparison to untreated samples 6 days after infestation. Control of Chilo suppressalis by a test sample is given when at least one of the categories mortality, anti-feedant effect, and growth inhibition is higher than the untreated sample.

[5] = application rate of 200 ppm, 8 days after infestation, eggs
[6] = application rate of 200 ppm, 4 days after infestation, L2 larvae
[7] = application rate of 200 ppm, 6 days after infestation, L2 larvae

Structure (SMILES) | percent control (mortality or growth inhibition) at 200 ppm [1, 5] | percent control (mortality, anti-feedant effect or growth inhibition) at 200 ppm [2] | percent control (mortality or growth inhibition) at 200 ppm [3, 6] | percent control (mortality, anti-feedant effect or growth inhibition) at 200 ppm [4, 7] | percent control (mortality or growth inhibition) at 200 ppm [1] | percent control (mortality or growth inhibition) at 200 ppm [3] | percent control (mortality, anti-feedant effect or growth inhibition) at 200 ppm [4]
CC(c1nc(Br)nn1-c1ncccn1)N(C)c1ncnc2c(C(F)(F)F)cc(C(F)(F)F)cc12 (centres unmarked) [P.4, N-[1-(5-bromo-2-pyrimidin-2-yl-1,2,4-triazol-3-yl)ethyl]-N-methyl-6,8-bis(trifluoromethyl)quina-zolin-4-amine] | ≥ 80% | ≥ 80% | ≥ 80% | ≥ 80% |  |  | 
C[C@H](Nc1ccnc2c(C(F)(F)F)cc(C(F)(F)F)cc12)c1ncnn1-c1ncccn1 [P.5, N-[(1S)-1-(2-pyrimidin-2-yl-1,2,4-triazol-3-yl)ethyl]-6,8-bis(trifluoromethyl)quinolin-4-amine] | ≥ 80% | ≥ 80% | ≥ 80% | ≥ 80% |  |  | 
CC(Nc1nc(Cl)nc2c(C(F)(F)F)cc(C(F)(F)F)cc12)c1ncnn1-c1ncccn1 (centres unmarked) [P.25, 2-chloro-N-[1-(2-pyrimidin-2-yl-1,2,4-triazol-3-yl)ethyl]-6,8-bis(trifluoromethyl)quinazolin-4-amine] |  | ≥ 80% | ≥ 80% | ≥ 80% |  |  | 
CC(Nc1ncnc2c(C(F)(F)F)cc(Cl)cc12)c1ncnn1-c1ccc(C#N)cn1 (centres unmarked) [P.41, 6-[5-[1-[[6-chloro-8-(trifluoromethyl)quinazolin-4-yl]amino]ethyl]-1,2,4-triazol-1-yl]pyridine-3-carbonitrile] | ≥ 80% | ≥ 80% |  | ≥ 80% |  |  | 
CC(Nc1ncnc2c(Br)cc(C(F)(F)F)cc12)c1ncnn1-c1ccc(C#N)cn1 (centres unmarked) [P.42, 6-[5-[1-[[8-bromo-6-(trifluoromethyl)quinazolin-4-yl]amino]ethyl]-1,2,4-triazol-1-yl]pyridine-3-carbonitrile] | ≥ 80% | ≥ 80% |  | ≥ 80% |  |  | 
CC(Nc1ncnc2c(Cl)cc(C(F)(F)F)cc12)c1ncnn1-c1ccc(C#N)cn1 (centres unmarked) [P.45, 6-[5-[1-[[8-chloro-6-(trifluoromethyl)quinazolin-4-yl]amino]ethyl]-1,2,4-triazol-1-yl]pyridine-3-carbonitrile] | ≥ 80% | ≥ 80% |  | ≥ 80% |  |  | 
C[C@H](c1ncnn1-c1ccc(C#N)cn1)N(C)c1ncnc2c(C(F)(F)F)cc(C(F)(F)F)cc12 [P.53, 6-[5-[(1R)-1-[[6,8-bis(trifluoromethyl)quina-zolin-4-yl]-methyl-amino]ethyl]-1,2,4-triazol-1-yl]pyridine-3-carbonitrile] | ≥ 80% | ≥ 80% |  | ≥ 80% |  |  | 
CC(Nc1ncnc2c(Cl)cc(C(F)(F)F)cc12)c1nccnc1-c1ccc(C#N)cn1 (centres unmarked) [P.121, 6-[3-[1-[[8-chloro-6-(trifluoromethyl)quinazolin-4-yl]amino]ethyl]pryazin-2-yl]pyridine-3-carbonitrile] |  | ≥ 80% |  | ≥ 80% |  |  | 
CC(c1nccnc1-c1ccc(C#N)cn1)N(C)c1ncnc2c(C(F)(F)F)cc(Br)cc12 (centres unmarked) [P.125, 6-[3-[1-[[6-bromo-8-(trifluoromethyl)quinazolin-4-yl]-methyl-amino]ethyl]pyrazin-2-yl]pyridine-3-carbonitrile] | ≥ 80% | ≥ 80% |  |  |  |  | 
CC(Nc1ncnc2c(Cl)c(F)c(Cl)cc12)c1ncnn1-c1ncccn1 (centres unmarked) [P.166, 6,8-dichloro-7-fluoro-N-[1-(2-pyrimidin-2-yl-1,2,4-triazol-3-yl)ethyl]quinazolin-4-amine] |  | ≥ 80% | ≥ 80% |  |  |  | 
CC(Nc1ncnc2c(C(F)(F)F)cc(Br)cc12)c1ncnn1-c1ccc(OC(F)F)cn1 (centres unmarked) [P.195, 6-bromo-N-[1-[2-[5-(difluoromethoxy)-2-pyridyl]-1,2,4-triazol-3-yl]ethyl]-8-(trifluoromethyl)quinazolin-4-amine] |  | ≥ 80% |  | ≥ 80% |  |  | 
C[C@@H](c1ncnn1-c1ccc(C#N)cn1)N(C)c1ncnc2c(C(F)(F)F)cc(Br)cc12 [P.204, 6-[5-[(1S)-1-[[6-bromo-8-(trifluoromethyl)quinazolin-4-yl]-methyl-amino]ethyl]-1,2,4-triazol-1-yl]pyridine-3-carbonitrile] | ≥ 80% | ≥ 80% |  |  |  |  | 
COc1ccc(CN(c2ncnc3c(C(F)(F)F)cc(C(F)(F)F)cc23)C(C)c2nccnc2-c2ncccn2)cc1 (centres unmarked) [P.225, N-[(4-methoxyphenyl)methyl]-N-[1-(3-pyrimidin-2-ylpyrazin-2-yl)ethyl]-6,8-bis(trifluoromethyl)quina-zolin-4-amine] | ≥ 80% |  | ≥ 80% | ≥ 80% |  |  | 
C[C@@H](c1ncnn1-c1ccc(C#N)cn1)N(C(=O)Oc1ccccc1)c1ncnc2c(C(F)(F)F)cc(C(F)(F)F)cc12 [P.226, phenyl N-[6,8-bis(trifluoromethyl)quina-zolin-4-yl]-N-[(1S)-1-[2-(5-cyano-2-pyridyl)-1,2,4-triazol-3-yl]ethyl]carbamate] |  |  |  |  | ≥ 80% | ≥ 80% | ≥ 80%
CC(Nc1ncnc2c(C(F)(F)F)cc(Cl)cc12)c1ncnn1-c1ccc(F)cn1 (centres unmarked) [P.234, 6-chloro-N-[1-[2-(5-fluroo-2-pyridyl)-1,2,4-triazol-3-yl]ethyl]-8-(trifluoromethyl)quinazolin-4-amine] | ≥ 80% | ≥ 80% | ≥ 80% |  |  |  | 
CC(Nc1ncnc2c(Br)cc(OC(F)(F)F)cc12)c1ncnn1-c1ccc(C#N)cn1 (centres unmarked) [P.246, 6-[5-[1-[[8-bromo-6-(trifluoromethoxy)quinazo-lin-4-yl]amino]ethyl]-1,2,4-triazol-1-yl]pyridine-3-carbonitrile] | ≥ 80% | ≥ 80% |  | ≥ 80% |  |  | 
CC(c1nccnc1-c1ccc(C#N)cn1)N(C)c1ncnc2c(C(F)(F)F)cc(Cl)cc12 (centres unmarked) [P.275, 6-[3-[1-[[6-chloro-8-(trifluoromethyl)quinazolin-4-yl]-methyl-amino]ethyl]pyrazin-2-yl]pyridine-3-carbonitrile] |  | ≥ 80% |  | ≥ 80% |  |  | 

Reference: patent US20230002359A1, “PESTICIDALLY ACTIVE FUSED BICYCLIC HETEROAROMATIC COMPOUNDS” (priority 2019, published 2023)
